# According to US8940742B2, “Heterocyclic compounds and uses thereof” (Infinity Pharmaceuticals, Inc., priority 2012, dated 2015):
# pIC50: −log10 of the molar value.
# Biological target: T1, Raw264.7 p110 γ (Mus musculus, UniProt Q9JHG7)
# T1 construct: reduction of phospho-AKT in stimulated RAW 264.7 cells; endogenous in cells; host or cells: RAW264.7 macrophages
# Test: Raw264.7 p110 γ cellular assay (phospho-AKT)
# Type: cell-based
# Details: serum-starved RAW264.7 cells stimulated with C5a
# Source text: (b) PI3K-γ Selective Assay
# Briefly, serum-starved PAW264.7 cells are stimulated with a known GPCR agonist C5a. […] Cells can be treated with test compounds prior to, simultaneously with, or subsequent to the stimulation by C5a. RAW 264.7 cells respond to the complement component fragment C5a through activation of the C5a receptor, and the C5a receptor activates macrophages and induces cell migration.
# T1 sequence (Q9JHG7 whole entry): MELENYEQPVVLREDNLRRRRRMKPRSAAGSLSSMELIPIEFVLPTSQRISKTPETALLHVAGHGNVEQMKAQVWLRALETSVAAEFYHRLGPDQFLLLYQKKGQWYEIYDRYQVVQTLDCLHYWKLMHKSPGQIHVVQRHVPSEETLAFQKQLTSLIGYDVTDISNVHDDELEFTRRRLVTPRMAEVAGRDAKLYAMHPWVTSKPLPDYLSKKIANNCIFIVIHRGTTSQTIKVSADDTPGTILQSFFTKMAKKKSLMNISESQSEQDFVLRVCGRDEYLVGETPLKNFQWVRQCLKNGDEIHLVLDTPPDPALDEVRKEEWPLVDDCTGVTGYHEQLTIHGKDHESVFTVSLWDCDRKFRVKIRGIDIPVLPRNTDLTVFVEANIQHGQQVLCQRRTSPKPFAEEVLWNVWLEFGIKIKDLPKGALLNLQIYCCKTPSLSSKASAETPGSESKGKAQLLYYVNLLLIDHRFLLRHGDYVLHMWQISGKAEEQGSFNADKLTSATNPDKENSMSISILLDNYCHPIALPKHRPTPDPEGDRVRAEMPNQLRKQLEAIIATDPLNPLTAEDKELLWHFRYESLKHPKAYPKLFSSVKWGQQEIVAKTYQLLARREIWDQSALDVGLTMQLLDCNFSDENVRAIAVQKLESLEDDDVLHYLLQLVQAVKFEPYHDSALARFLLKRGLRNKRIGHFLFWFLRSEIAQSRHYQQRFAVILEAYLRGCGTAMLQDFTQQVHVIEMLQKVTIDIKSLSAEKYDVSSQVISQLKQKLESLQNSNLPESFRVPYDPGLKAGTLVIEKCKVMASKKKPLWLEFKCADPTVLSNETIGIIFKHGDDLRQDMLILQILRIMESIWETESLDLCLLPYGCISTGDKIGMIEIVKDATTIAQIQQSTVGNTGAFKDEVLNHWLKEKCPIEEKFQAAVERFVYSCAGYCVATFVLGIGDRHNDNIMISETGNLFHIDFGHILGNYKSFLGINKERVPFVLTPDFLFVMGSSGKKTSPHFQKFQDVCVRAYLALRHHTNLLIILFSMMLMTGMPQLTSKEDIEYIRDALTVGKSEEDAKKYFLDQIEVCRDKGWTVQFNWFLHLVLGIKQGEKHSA
row,pIC50,SMILES
1,> 7.00,C[C@H](NC(=O)c1c(N)nn2cccnc12)c1cc2cccc(Cl)c2c(=O)n1C1CC1 [Compound 77]
2,6.00 to 7.00,Cc1cnc(N)c(C(=O)N[C@@H](C)c2cc3cccc(Cl)c3c(=O)n2-c2ccccc2)n1 [Compound 89]
3,6.00 to 7.00,C[C@H](NC(=O)c1cnn2cccnc12)c1cc2cccc(Cl)c2c(=O)n1-c1ccccc1 [Compound 22]
4,> 7.00,C[C@H](NC(=O)c1nc(-c2cccc(S(N)(=O)=O)c2)cnc1N)c1cc2cccc(Cl)c2c(=O)n1-c1ccccc1 [Compound 108]
5,> 7.00,C[C@H](NC(=O)c1c(N)nn2ccc(-c3cccc(S(C)(=O)=O)c3)nc12)c1cc2cccc(Cl)c2c(=O)n1-c1ccccc1 [Compound 127]
6,> 7.00,C[C@H](NC(=O)c1c(N)nn2cccnc12)c1cc2cccc(C#CCNC(=O)C3CCCCC3)c2c(=O)n1-c1ccccc1 [Compound 159]
7,> 7.00,C[C@H](NC(=O)c1nc(-c2cccc(NS(=O)(=O)N(C)C)c2)cnc1N)c1cc2cccc(Cl)c2c(=O)n1-c1ccccc1 [Compound 99]
8,6.00 to 7.00,C[C@H](NC(=O)c1c(N)nn2cccnc12)c1cc2sccc2c(=O)n1-c1ccccc1 [Compound 225]

# Biological target: T2, PI3K γ (Homo sapiens, UniProt P48736)
# T2 construct: purchased Millipore
# Test: PI3-Kinase Promega ADP-Glo Max assay
# Type: biochemical
# Details: 40 nM kinase, 3 mM ATP, 500 uM diC8-PtdInsP
# In short: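 Human class I PI3K reactions ran 2 hours at room temperature, followed by stop solution (40 min) and detection mix (1 hour) before luminescence reading.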
# T2 sequence (P48736 whole entry): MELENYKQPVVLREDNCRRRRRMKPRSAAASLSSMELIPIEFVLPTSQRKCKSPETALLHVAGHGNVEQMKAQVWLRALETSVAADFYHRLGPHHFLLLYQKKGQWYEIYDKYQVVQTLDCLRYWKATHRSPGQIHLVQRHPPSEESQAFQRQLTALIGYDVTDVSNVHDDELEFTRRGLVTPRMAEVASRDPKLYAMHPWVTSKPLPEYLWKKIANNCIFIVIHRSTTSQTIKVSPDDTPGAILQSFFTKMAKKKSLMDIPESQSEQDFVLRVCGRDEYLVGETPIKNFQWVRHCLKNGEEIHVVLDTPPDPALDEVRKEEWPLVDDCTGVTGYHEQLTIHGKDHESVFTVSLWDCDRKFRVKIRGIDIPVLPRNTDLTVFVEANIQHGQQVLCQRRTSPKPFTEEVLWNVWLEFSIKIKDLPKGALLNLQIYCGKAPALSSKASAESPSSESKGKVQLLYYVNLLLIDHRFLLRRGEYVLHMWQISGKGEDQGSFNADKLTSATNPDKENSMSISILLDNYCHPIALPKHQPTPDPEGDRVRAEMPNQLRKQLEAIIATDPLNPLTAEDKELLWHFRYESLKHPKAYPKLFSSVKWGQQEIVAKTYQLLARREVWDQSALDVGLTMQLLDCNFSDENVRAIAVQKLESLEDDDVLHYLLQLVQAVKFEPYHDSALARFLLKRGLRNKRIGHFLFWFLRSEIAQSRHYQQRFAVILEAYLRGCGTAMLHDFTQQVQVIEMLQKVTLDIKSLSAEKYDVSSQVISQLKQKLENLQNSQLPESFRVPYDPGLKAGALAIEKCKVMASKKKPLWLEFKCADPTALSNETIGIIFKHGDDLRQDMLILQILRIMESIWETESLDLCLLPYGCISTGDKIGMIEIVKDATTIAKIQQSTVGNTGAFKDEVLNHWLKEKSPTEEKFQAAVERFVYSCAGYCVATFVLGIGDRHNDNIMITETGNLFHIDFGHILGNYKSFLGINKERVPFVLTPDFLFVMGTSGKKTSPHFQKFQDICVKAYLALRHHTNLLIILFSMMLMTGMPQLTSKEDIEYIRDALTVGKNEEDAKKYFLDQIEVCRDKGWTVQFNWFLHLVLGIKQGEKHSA
row,pIC50,SMILES
1,6.00 to 7.00,C[C@H](NC(=O)c1c(N)nn2cccnc12)c1cc2cccc(Cl)c2c(=O)n1C1CC1 [Compound 77]
2,5.00 to 6.00,Cc1cnc(N)c(C(=O)N[C@@H](C)c2cc3cccc(Cl)c3c(=O)n2-c2ccccc2)n1 [Compound 89]
3,5.00 to 6.00,C[C@H](NC(=O)c1cnn2cccnc12)c1cc2cccc(Cl)c2c(=O)n1-c1ccccc1 [Compound 22]
4,6.00 to 7.00,C[C@H](NC(=O)c1nc(-c2cccc(S(N)(=O)=O)c2)cnc1N)c1cc2cccc(Cl)c2c(=O)n1-c1ccccc1 [Compound 108]
5,> 7.00,C[C@H](NC(=O)c1c(N)nn2ccc(-c3cccc(S(C)(=O)=O)c3)nc12)c1cc2cccc(Cl)c2c(=O)n1-c1ccccc1 [Compound 127]
6,6.00 to 7.00,C[C@H](NC(=O)c1c(N)nn2cccnc12)c1cc2cccc(C#CCNC(=O)C3CCCCC3)c2c(=O)n1-c1ccccc1 [Compound 159]
7,> 7.00,C[C@H](NC(=O)c1nc(-c2cccc(NS(=O)(=O)N(C)C)c2)cnc1N)c1cc2cccc(Cl)c2c(=O)n1-c1ccccc1 [Compound 99]
8,5.00 to 6.00,C[C@H](NC(=O)c1c(N)nn2cccnc12)c1cc2sccc2c(=O)n1-c1ccccc1 [Compound 225]

# Biological target: T3, PI3K δ (Homo sapiens, UniProt O00329)
# T3 construct: purchased Millipore
# Test: PI3-Kinase Promega ADP-Glo Max assay
# Type: biochemical
# Details: 20 nM kinase, 3 mM ATP, 500 uM diC8-PtdInsP
# In short: (§1)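 Human class I PI3K (20 nM α or δ, 40 nM β) pre-incubated 15 min with compound in HEPES pH 7.4 buffer with MgCl2, then reacted 2 h at room temperature with 3 mM ATP and 500 uM diC8-PtdInsP. ADP measured by ADP-Glo Max luminescence; % inhibition fitted to 4-parameter logistic for IC50.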
row,pIC50,SMILES
1,6.00 to 7.00,C[C@H](NC(=O)c1c(N)nn2cccnc12)c1cc2cccc(Cl)c2c(=O)n1C1CC1 [Compound 77]
2,5.00 to 6.00,Cc1cnc(N)c(C(=O)N[C@@H](C)c2cc3cccc(Cl)c3c(=O)n2-c2ccccc2)n1 [Compound 89]
3,5.00 to 6.00,C[C@H](NC(=O)c1cnn2cccnc12)c1cc2cccc(Cl)c2c(=O)n1-c1ccccc1 [Compound 22]
4,5.00 to 6.00,C[C@H](NC(=O)c1nc(-c2cccc(S(N)(=O)=O)c2)cnc1N)c1cc2cccc(Cl)c2c(=O)n1-c1ccccc1 [Compound 108]
5,> 7.00,C[C@H](NC(=O)c1c(N)nn2ccc(-c3cccc(S(C)(=O)=O)c3)nc12)c1cc2cccc(Cl)c2c(=O)n1-c1ccccc1 [Compound 127]
6,5.00 to 6.00,C[C@H](NC(=O)c1c(N)nn2cccnc12)c1cc2cccc(C#CCNC(=O)C3CCCCC3)c2c(=O)n1-c1ccccc1 [Compound 159]
7,6.00 to 7.00,C[C@H](NC(=O)c1nc(-c2cccc(NS(=O)(=O)N(C)C)c2)cnc1N)c1cc2cccc(Cl)c2c(=O)n1-c1ccccc1 [Compound 99]
8,5.00 to 6.00,C[C@H](NC(=O)c1c(N)nn2cccnc12)c1cc2sccc2c(=O)n1-c1ccccc1 [Compound 225]

# Biological target: T4, PI3K α (Homo sapiens, UniProt P42336)
# T4 construct: purchased Millipore
# Test: PI3-Kinase Promega ADP-Glo Max assay
# Type: biochemical
# Details: 20 nM kinase, 3 mM ATP, 500 uM diC8-PtdInsP
# In short: as §1
# T4 sequence (P42336 whole entry): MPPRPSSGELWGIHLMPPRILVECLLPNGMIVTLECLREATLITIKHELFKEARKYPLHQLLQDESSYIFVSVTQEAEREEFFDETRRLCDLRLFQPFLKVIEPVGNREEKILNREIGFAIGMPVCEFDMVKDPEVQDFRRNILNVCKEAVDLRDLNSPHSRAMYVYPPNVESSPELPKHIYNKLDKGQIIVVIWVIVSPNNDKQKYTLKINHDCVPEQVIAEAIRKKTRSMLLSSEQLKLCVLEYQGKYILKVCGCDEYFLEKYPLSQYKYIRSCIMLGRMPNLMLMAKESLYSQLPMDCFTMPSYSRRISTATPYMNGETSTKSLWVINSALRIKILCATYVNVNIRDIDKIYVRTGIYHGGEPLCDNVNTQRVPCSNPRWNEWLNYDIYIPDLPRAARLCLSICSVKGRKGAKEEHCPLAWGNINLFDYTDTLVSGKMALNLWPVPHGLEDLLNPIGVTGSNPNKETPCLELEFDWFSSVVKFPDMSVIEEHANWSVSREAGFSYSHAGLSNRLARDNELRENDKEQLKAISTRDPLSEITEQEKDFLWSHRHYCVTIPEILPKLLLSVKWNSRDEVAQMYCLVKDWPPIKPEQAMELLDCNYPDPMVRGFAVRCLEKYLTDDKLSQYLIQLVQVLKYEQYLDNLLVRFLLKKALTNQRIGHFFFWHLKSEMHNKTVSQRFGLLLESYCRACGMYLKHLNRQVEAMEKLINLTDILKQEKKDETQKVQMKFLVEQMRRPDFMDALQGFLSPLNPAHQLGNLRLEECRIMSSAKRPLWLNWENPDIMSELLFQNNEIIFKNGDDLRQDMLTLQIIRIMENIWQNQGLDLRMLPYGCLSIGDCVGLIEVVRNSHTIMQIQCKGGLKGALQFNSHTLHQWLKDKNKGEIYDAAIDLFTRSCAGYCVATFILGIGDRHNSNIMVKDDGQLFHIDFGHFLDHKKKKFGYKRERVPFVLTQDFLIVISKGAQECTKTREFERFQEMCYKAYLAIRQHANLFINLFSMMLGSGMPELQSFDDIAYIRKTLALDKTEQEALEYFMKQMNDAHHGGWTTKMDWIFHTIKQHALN
# T4 sequence (P27986 whole entry partner): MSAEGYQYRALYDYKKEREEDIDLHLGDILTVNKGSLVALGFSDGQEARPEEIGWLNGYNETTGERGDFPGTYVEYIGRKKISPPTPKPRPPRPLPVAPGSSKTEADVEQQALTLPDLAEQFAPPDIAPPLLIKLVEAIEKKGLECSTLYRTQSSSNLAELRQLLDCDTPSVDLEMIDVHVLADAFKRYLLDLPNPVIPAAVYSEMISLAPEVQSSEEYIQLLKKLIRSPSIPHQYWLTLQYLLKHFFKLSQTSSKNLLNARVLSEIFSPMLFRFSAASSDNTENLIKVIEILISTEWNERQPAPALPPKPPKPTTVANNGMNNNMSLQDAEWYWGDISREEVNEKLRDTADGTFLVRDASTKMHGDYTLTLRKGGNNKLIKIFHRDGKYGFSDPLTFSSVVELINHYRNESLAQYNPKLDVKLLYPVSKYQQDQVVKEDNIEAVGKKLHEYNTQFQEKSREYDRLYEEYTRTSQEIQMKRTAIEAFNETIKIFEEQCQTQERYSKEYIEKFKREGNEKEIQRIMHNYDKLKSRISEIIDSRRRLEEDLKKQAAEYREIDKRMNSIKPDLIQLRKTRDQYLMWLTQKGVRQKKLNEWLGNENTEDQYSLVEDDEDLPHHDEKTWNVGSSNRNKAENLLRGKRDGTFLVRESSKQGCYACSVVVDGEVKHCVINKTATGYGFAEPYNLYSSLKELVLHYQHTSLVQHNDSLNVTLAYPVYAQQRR
row,pIC50,SMILES
1,6.00 to 7.00,C[C@H](NC(=O)c1c(N)nn2cccnc12)c1cc2cccc(Cl)c2c(=O)n1C1CC1 [Compound 77]
2,< 5.00,Cc1cnc(N)c(C(=O)N[C@@H](C)c2cc3cccc(Cl)c3c(=O)n2-c2ccccc2)n1 [Compound 89]
3,< 5.00,C[C@H](NC(=O)c1cnn2cccnc12)c1cc2cccc(Cl)c2c(=O)n1-c1ccccc1 [Compound 22]
4,5.00 to 6.00,C[C@H](NC(=O)c1nc(-c2cccc(S(N)(=O)=O)c2)cnc1N)c1cc2cccc(Cl)c2c(=O)n1-c1ccccc1 [Compound 108]
5,> 7.00,C[C@H](NC(=O)c1c(N)nn2ccc(-c3cccc(S(C)(=O)=O)c3)nc12)c1cc2cccc(Cl)c2c(=O)n1-c1ccccc1 [Compound 127]
6,5.00 to 6.00,C[C@H](NC(=O)c1c(N)nn2cccnc12)c1cc2cccc(C#CCNC(=O)C3CCCCC3)c2c(=O)n1-c1ccccc1 [Compound 159]
7,5.00 to 6.00,C[C@H](NC(=O)c1nc(-c2cccc(NS(=O)(=O)N(C)C)c2)cnc1N)c1cc2cccc(Cl)c2c(=O)n1-c1ccccc1 [Compound 99]
8,< 5.00,C[C@H](NC(=O)c1c(N)nn2cccnc12)c1cc2sccc2c(=O)n1-c1ccccc1 [Compound 225]

# Biological target: T5, PI3K β (Homo sapiens, UniProt P42338)
# T5 construct: purchased Millipore
# Test: PI3-Kinase Promega ADP-Glo Max assay
# Type: biochemical
# Details: 40 nM kinase, 3 mM ATP, 500 uM diC8-PtdInsP
# In short: as §1
# T5 sequence (P42338 whole entry): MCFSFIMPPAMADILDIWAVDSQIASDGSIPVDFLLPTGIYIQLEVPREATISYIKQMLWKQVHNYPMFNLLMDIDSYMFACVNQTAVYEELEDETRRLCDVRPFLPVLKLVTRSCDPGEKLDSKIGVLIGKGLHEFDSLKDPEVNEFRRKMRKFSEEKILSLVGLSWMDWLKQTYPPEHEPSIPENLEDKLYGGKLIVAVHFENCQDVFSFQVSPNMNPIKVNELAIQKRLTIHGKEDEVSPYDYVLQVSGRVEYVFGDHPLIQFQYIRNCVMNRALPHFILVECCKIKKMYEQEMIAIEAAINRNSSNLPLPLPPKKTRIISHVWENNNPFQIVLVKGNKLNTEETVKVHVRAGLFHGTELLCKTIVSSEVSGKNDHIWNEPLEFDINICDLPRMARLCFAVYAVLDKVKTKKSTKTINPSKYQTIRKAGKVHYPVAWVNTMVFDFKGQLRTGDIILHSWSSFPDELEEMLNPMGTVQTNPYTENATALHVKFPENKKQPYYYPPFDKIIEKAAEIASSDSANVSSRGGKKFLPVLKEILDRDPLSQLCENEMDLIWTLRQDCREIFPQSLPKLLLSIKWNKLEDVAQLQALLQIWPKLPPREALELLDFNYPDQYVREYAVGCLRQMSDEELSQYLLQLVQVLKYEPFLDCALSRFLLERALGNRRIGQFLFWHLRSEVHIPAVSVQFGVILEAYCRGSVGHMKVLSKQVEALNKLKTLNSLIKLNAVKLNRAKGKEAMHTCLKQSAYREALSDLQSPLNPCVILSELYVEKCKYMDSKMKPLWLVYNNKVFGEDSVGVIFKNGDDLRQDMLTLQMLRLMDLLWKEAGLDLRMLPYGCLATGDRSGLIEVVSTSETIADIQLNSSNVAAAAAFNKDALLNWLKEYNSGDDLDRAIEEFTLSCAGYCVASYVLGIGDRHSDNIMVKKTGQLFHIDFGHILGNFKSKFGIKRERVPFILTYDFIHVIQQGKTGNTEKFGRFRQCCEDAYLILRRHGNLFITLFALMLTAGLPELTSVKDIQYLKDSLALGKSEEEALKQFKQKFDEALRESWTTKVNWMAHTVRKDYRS
# T5 sequence (P27986 whole entry partner): as the sequence (P27986 whole entry partner) above
row,pIC50,SMILES
1,> 7.00,C[C@H](NC(=O)c1c(N)nn2cccnc12)c1cc2cccc(Cl)c2c(=O)n1C1CC1 [Compound 77]
2,5.00 to 6.00,Cc1cnc(N)c(C(=O)N[C@@H](C)c2cc3cccc(Cl)c3c(=O)n2-c2ccccc2)n1 [Compound 89]
3,5.00 to 6.00,C[C@H](NC(=O)c1cnn2cccnc12)c1cc2cccc(Cl)c2c(=O)n1-c1ccccc1 [Compound 22]
4,6.00 to 7.00,C[C@H](NC(=O)c1nc(-c2cccc(S(N)(=O)=O)c2)cnc1N)c1cc2cccc(Cl)c2c(=O)n1-c1ccccc1 [Compound 108]
5,> 7.00,C[C@H](NC(=O)c1c(N)nn2ccc(-c3cccc(S(C)(=O)=O)c3)nc12)c1cc2cccc(Cl)c2c(=O)n1-c1ccccc1 [Compound 127]
6,5.00 to 6.00,C[C@H](NC(=O)c1c(N)nn2cccnc12)c1cc2cccc(C#CCNC(=O)C3CCCCC3)c2c(=O)n1-c1ccccc1 [Compound 159]
7,6.00 to 7.00,C[C@H](NC(=O)c1nc(-c2cccc(NS(=O)(=O)N(C)C)c2)cnc1N)c1cc2cccc(Cl)c2c(=O)n1-c1ccccc1 [Compound 99]
8,5.00 to 6.00,C[C@H](NC(=O)c1c(N)nn2cccnc12)c1cc2sccc2c(=O)n1-c1ccccc1 [Compound 225]

# Biological target: RAJI p110 δ (Homo sapiens, UniProt O00329)
# Test: RAJI p110 δ cellular assay (phospho-AKT);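 further: potency based on lowered phosphorylated AKT in RAJI cells, as a readout of PI3K-δ dependent B-cell receptor signaling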
# Details: not given
row,pIC50,SMILES
1,> 7.00,C[C@H](NC(=O)c1c(N)nn2cccnc12)c1cc2cccc(Cl)c2c(=O)n1C1CC1 [Compound 77]
2,6.00 to 7.00,Cc1cnc(N)c(C(=O)N[C@@H](C)c2cc3cccc(Cl)c3c(=O)n2-c2ccccc2)n1 [Compound 89]
3,6.00 to 7.00,C[C@H](NC(=O)c1cnn2cccnc12)c1cc2cccc(Cl)c2c(=O)n1-c1ccccc1 [Compound 22]
4,6.00 to 7.00,C[C@H](NC(=O)c1nc(-c2cccc(S(N)(=O)=O)c2)cnc1N)c1cc2cccc(Cl)c2c(=O)n1-c1ccccc1 [Compound 108]
5,> 7.00,C[C@H](NC(=O)c1c(N)nn2ccc(-c3cccc(S(C)(=O)=O)c3)nc12)c1cc2cccc(Cl)c2c(=O)n1-c1ccccc1 [Compound 127]
6,> 7.00,C[C@H](NC(=O)c1c(N)nn2cccnc12)c1cc2cccc(C#CCNC(=O)C3CCCCC3)c2c(=O)n1-c1ccccc1 [Compound 159]
7,> 7.00,C[C@H](NC(=O)c1nc(-c2cccc(NS(=O)(=O)N(C)C)c2)cnc1N)c1cc2cccc(Cl)c2c(=O)n1-c1ccccc1 [Compound 99]
8,6.00 to 7.00,C[C@H](NC(=O)c1c(N)nn2cccnc12)c1cc2sccc2c(=O)n1-c1ccccc1 [Compound 225]
